In brackets after ≈: the same amount, converted by molar mass. Activity calls are given as the source filed them. No cut-off for these calls is given here.
Key:
[1] = target: T1, GABA-A receptor; alpha-2/beta-3/gamma-2 (Homo sapiens, UniProt P18507+P28472+P47869); test: Displacement of [3H]Flumazenil from cloned human GABA alpha-2-beta-3-gamma-2 receptor expressed in HEK293 cells; type: cell-based
T1 sequence (P18507 whole entry): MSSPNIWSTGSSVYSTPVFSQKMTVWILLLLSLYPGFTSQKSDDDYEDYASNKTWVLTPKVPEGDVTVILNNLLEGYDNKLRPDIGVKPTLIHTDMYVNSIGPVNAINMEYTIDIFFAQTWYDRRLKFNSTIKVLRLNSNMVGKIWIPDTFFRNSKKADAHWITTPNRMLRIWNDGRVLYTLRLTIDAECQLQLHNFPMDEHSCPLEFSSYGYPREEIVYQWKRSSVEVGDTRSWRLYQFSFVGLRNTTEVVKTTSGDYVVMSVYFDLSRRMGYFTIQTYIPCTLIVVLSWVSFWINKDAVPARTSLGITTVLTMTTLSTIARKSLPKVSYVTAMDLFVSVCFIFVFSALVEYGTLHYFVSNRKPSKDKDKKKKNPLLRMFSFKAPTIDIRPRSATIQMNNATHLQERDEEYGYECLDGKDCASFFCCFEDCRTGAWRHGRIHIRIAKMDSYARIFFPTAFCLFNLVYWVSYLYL
T1 sequence (P28472 whole entry): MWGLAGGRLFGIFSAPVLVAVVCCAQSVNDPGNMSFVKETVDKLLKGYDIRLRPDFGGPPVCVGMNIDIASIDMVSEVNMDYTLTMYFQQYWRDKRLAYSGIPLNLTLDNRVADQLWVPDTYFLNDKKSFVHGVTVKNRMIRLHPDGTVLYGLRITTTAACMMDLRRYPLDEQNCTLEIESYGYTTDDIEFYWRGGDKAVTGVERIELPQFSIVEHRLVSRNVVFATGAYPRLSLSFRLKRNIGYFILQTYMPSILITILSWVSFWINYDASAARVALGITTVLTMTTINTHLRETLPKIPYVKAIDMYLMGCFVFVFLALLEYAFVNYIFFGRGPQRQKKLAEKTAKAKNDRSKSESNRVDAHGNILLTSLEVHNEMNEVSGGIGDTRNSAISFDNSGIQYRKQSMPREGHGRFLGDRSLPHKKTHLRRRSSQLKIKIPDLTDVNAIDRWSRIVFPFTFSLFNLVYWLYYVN
T1 sequence (P47869 whole entry): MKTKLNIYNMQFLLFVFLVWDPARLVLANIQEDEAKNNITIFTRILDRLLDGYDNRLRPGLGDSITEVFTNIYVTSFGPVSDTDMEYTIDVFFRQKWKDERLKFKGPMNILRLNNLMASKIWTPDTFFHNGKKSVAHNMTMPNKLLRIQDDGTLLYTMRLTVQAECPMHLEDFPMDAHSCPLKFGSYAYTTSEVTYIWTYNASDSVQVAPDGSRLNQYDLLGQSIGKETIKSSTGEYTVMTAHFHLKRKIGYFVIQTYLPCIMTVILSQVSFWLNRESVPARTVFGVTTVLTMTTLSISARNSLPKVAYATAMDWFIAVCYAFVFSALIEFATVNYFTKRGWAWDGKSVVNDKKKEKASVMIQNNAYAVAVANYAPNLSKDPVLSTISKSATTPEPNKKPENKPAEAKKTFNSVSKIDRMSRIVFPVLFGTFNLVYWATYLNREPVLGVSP

[2] = target: Gamma-aminobutyric acid receptor subunit alpha-3 (Rattus norvegicus) (UniProt P20236); test: Inverse agonist activity at rat GABA alpha-3-beta-3-gamma-2 receptor expressed in HEK293 cells by electrophysiology assay relative to GABA; type: functional, cell-based
[3] = target: GABA A receptor alpha-2/beta-2/gamma-2 (Rattus norvegicus) (UniProt P18508+P23576+P63138); test: Inverse agonist activity at rat GABA alpha-2-beta-3-gamma-2 receptor expressed in HEK293 cells by electrophysiology assay relative to GABA; type: functional, cell-based
[4] = Ratio of drug level in brain to plasma in rat; type: ADME
[5] = tested on: Rattus norvegicus; test: Behavioral effect in Lister hooded rat assessed as inhibition of diazepam-induced spartial learning impairment at 1 to 10 mg/kg, po by delayed match to position task method; type: functional, organism-based
[6] = tested on: Rattus norvegicus; test: Behavioral effect in Lister hooded rat assessed as reversal of scopolamine-induced working memory impairment at 0.1 mg/kg, po after 24 seconds by delayed match to position task method; type: functional, organism-based; set-up: dose 0.1 mg/kg
[7] = tested on: Cynomolgus monkey; test: Behavioral effect in cynomolgus monkey assessed as improved executive function at 3 to10 mg/kg, po by object retrieval task method; type: functional, organism-based; conditions: Macaca fascicularis
[8] = organism: Rattus norvegicus; test: Anxiogenic activity in Lister hooded rat by elevated plus maze test; type: functional, organism-based
[9] = tested on: Rattus norvegicus; test: Behavioral effect in Lister hooded rat assessed as reversal of scopolamine-induced working memory impairment at 0.3 to 1 mg/kg, po by delayed match to position task method; type: functional, organism-based
[10] = Solubility by lypophlisation solubility assay; type: physicochemical
[11] = Permeability by PAMPA; type: ADME; conditions: read-out: permeability
[12] = Oral bioavailability in rat; type: ADME, organism-based; conditions: in vivo
[13] = organism: Mus musculus; test: Anticonvulsive activity in mouse audiogenic seizure model; type: functional, organism-based
[14] = organism: Rattus norvegicus; test: Anxiogenic activity in Lister hooded rat by social approach avoidance test; type: functional, organism-based
[15] = tested on: HEK293; test: Selectivity ratio of Ki for cloned human GABA alpha-3-beta-3-gamma-2 receptor expressed in HEK293 cells to Ki for cloned human GABA alpha-5-beta-3-gamma-2 receptor expressed in HEK293 cells; type: cell-based
[16] = tested on: Rattus norvegicus; test: Behavioral effect in Lister hooded rat assessed as reversal of scopolamine-induced working memory impairment at 1 mg/kg, po after 16 seconds by delayed match to position task method; type: functional, organism-based; set-up: dose 1 mg/kg
[17] = tested on: Rattus norvegicus; test: Behavioral effect in Lister hooded rat assessed as reversal of scopolamine-induced working memory impairment at 1 mg/kg, po by delayed match to position task method; type: functional, organism-based; set-up: dose 1 mg/kg
[18] = tested on: Rattus norvegicus; test: Behavioral effect in Lister hooded rat assessed as reversal of scopolamine-induced working memory impairment at 1 mg/kg, po after 24 seconds by delayed match to position task method; type: functional, organism-based; set-up: dose 1 mg/kg
[19] = target: GABA-A receptor; alpha-5/beta-3/gamma-2 (Homo sapiens) (UniProt P18507+P28472+P31644); test: Inverse agonist activity at human GABA alpha-5-beta-3-gamma-2 receptor expressed in Xenopus laevis oocyts by electrophysiology assay relative to GABA; type: functional

Chain of Gamma-aminobutyric acid receptor subunit alpha-3 (Rattus norvegicus) (P20236 whole entry): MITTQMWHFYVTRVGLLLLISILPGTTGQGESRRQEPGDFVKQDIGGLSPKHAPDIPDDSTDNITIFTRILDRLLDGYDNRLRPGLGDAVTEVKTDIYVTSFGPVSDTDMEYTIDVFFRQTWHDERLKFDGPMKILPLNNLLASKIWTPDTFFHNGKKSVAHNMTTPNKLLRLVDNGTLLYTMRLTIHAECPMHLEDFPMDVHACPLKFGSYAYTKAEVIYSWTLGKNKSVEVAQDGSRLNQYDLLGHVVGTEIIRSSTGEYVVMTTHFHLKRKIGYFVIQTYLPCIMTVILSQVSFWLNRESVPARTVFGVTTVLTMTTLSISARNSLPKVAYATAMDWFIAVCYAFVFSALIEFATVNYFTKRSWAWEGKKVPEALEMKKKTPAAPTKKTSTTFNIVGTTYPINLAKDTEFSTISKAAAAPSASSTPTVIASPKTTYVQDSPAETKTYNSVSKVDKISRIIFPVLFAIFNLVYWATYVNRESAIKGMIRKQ

Compound	Ki [1]	Efficacy [2]	Efficacy [3]	Kp [4]	Activity [5]	Activity [6]	Activity [7]	Activity [8]	Activity [9]	solubility [10]	Papp [11]	bioavailability [12]	Activity [13]	Activity [14]	Ratio Ki [15]	Activity [16]	Activity [17]	Activity [18]	Activity [19]
FC(F)c1ncn2c1Cn1ncnc1-c1cc(Br)ccc1-2	185 nM	2%	-4%	0.4	Active	Active	Active	inactive	Active	19 µg/mL (≈ 54 µM)	7 ×10⁻⁶ cm/s	89%	inactive	inactive					
Clc1ncn2c1Cn1ncnc1-c1cc(Br)ccc1-2	24 nM	-14%	-25%							9 µg/mL (≈ 26.7 µM)	7 ×10⁻⁶ cm/s	56%			7				
Clc1ccc2c(c1)-c1ncnn1Cc1c(Cl)ncn1-2	24 nM	-11%	-9%	0.2						27 µg/mL (≈ 92.4 µM)	6.5 ×10⁻⁶ cm/s	81%			7	Active	inactive	Active	Active
Cc1ncn2c1Cn1ncnc1-c1cc(Cl)ccc1-2	219 nM	4%	-2%	0.6						13 µg/mL (≈ 47.8 µM)	8.9 ×10⁻⁶ cm/s	52%			88				

Reference: ChEMBL document CHEMBL1154288, “The discovery and unique pharmacological profile of RO4938581 and RO4882224 as potent and selective GABAA alpha5 inverse agonists for the treatment of cognitive dysfunction” (Bioorg Med Chem Lett, 2009)
